Results as given in patent US20200345733A1, “Microbicidal Pyrimidine or Triazine Containing Compounds” (Janssen Sciences Ireland UC, priority 2002, published 2020).
Like-named read-outs stand apart in the source and are kept apart here.

Key:
HIV Ba-L = assay: Prevention of HIV Ba-L infection in MO-DC/CD4(+) T cell co-cultures (ELISA, secondary culture, PCR); assay type: cell-based; details: for HIV Antigen (number of positive wells) 2° Cult. / HIV proviral DNA (2° Cult.) / HIV Antigen (number of positive wells) 1° Cult.: cell-associated HIV Ba-L; for HIV Antigen (number of positive wells) 2° Cult.: 2° culture without drug, out of 6; for HIV proviral DNA (2° Cult.): PCR after secondary culture; for HIV Antigen (number of positive wells) 1° Cult.: continuous drug, out of 6 microcultures; for EC50: Human immunodeficiency virus 1, BAL, T-cell, MO-DC/CD4(+) T cells, read-out: EC50 (inhibiting 50% of HIV Ba-L replication)
Experimental: For experiments with CEM T cells, we used the lymphotropic SI/X4 HIV strain HTLV-IIIB, originally obtained from R. C. Gallo and M. Popovic (NIH, Bethesda, Md.). For experiments with monocyte-derived dendritic cells (MO-DC), the monotropic NSI/R5 HIV strain Ba-L, kindly provided by the NIH AIDS Research and Reference Reagent Program (Rockville, Md) was used. Ba-L stocks were grown and tittered on PHA/IL-2-stimulated peripheral blood mononuclear cells (PBMC) in complete medium, containing RPMI-1640 (Bio-Whittaker, Verviers, Belgium) and 10% bovine calf serum (Hyclone, Utah, US) (Peden K. Virological and Molecular Genetic Techniques for Studies of Established HIV Isolates. 1995, 21-45). The supernatant of these cultures were directly used as cell-free virus to infect MO-DC. To prepare cell-associated HIV Ba-L, non-stimulated PBMC (2×10^6 cells/ml) were incubated overnight with 10^−2 MOI (=multiplicity of infection) of HIV Ba-L in complete medium. Afterwards, cells were extensively washed, frozen in liquid nitrogen and thawed on the day of infection.
HIV antigen was detected using an in-house developed ELISA assay, of which the characteristics have been described (Beirnaert E, Willems B, Peeters M, Bouckaert A, Heyndrickx L, Zhong P et al. Design and Evaluation of an in-House HIV-1 (Group M and O), SIVmnd and SIVcpz Antigen Capture Assay. J Virol Methods 1998, 73: 65-70). The lower detection limit is about 200 pg/ml and the upper limit is about 25,000 pg/ml, as determined using a standard curve of Ba-L stock dilutions with known p24 content. The 50% Effective Concentration (EC50) was calculated by plotting HIV Ag concentration against drug concentration, followed by regression analysis on the linear part of the curve,
Cell-free HIV Ba-L was pre-incubated with a serial dilution of drug, ranging from 10,000 to 0.1 nM (final concentration), for 1 hour at 37° C. MO-DC were infected with drug-treated HIV at a multiplicity of infection (MOI) of 10^−3. After 2 hours (at 37° C.), MO-DC were washed (6×) and suspended at 4×10^5 cells/ml. 50 μl of MO-DC were dispensed in a 96-well cup, together with 50 μl of autologous CD4(+) T cells (2×10^6 cells/ml) and 100 μl of complete medium or 100 μl of drug (at the same concentration as for the pre-incubation). Half of the culture medium was refreshed twice weekly with complete medium, with or without drug. After 2 weeks of primary culture, supernatants were analysed by ELISA and cells were used for secondary cultures to check viral rescue. For experiments with cell-associated HIV, a similar set-up was used except that pre-incubated, cell-associated virus was washed before addition of MO-DC/CD4(+) T cells and remained present during the MO-DC/CD4(+) T cell co-culture.
To evaluate the effect of a 24-hours treatment, MO-DC and autologous CD4(+) T cells were suspended in complete medium at 4×10^4, resp. 2×10^5 cells/ml. Fifty μl of MO-DC and 50 μl of CD4(±) T cells were dispensed in a 96-well cup, together with 50 μl of cell-associated or cell-free virus (10^−3 MOI) and 50 μl of complete medium or 50 μl of a serial dilution of drug. After 24-hours (37° C., 5% CO2), cells were washed (3×) and incubated for 2 weeks. Half of the culture medium was refreshed twice weekly with complete medium (without drug). After 2 weeks of primary culture, supernatants were analysed by ELISA and cells were used for secondary cultures to check viral rescue.
PBMC were isolated from donor buffy coats and cultured for 2 days in complete medium supplemented with 5 ng/ml IL-2 (Immunosource, Zoersel, Belgium) and 0.5 μg/ml PHA (Murex, Dartford, England). After 2 weeks of primary culture, MO-DC/CD4(+) T cell co-cultures were washed (3×) and secondary cultures were set-up by adding 1×10^5 PHA/IL-2 activated PBMC per cup. Half of the culture medium was replaced every 3-4 days with IL-2 containing medium (without drug) and supernatants as well as cells were harvested after 2 additional weeks. Supernatants were tested for HIV-Ag in ELISA. […]

HIV-1 (SF162 and 1/BX08) = assay: hu-SCID animal model of vaginal transmission of HIV; assay type: in vivo; details: single intravaginal 25 μl gel (carbopol 940 or HEC; 0.225, 0.0225 or 0.00225 mM) 15-20 minutes before challenge
Experimental: In order to mimic the in vivo transmission that occurs in humans, a hu-SCID animal model of vaginal transmission of HIV for the evaluation of vaginal microbicides was used (Di Fabio et al., AIDS 2001, 15, 2231-2234 Gels made up of carbopol 940 or hydroxyethyl cellulose (HEC), two water soluble polymers, were prepared containing Compound B in different concentrations (0.225 mM; 0.0225 mM or 0.00225 mM). Animals received a single intravaginal application of 25 μl of gel containing Compound B, 15-20 minutes prior to a non invasive vaginal challenge with 2×10^6 human peripheral blood lymphocytes PBL, (hu-PBL) previously infected in vitro with non-syncitium (NSI) strains of HIV-1 (SF162 and 1/BX08). Cell to cell transmission was assessed by p24 production and by quantitative PCR.

HIV-1 RF = assay: Direct antiviral activity, immobilised virus with Jurkat-tat indicator cells; assay type: cell-based
Lactobacillus species = assay: In vitro antibacterial activity, lactobacilli; assay type: cell-based; details: 33 different Lactobacillus species from recto-vaginal cultures of pregnant women; read-out: minimum inhibitory concentration (MIC50)
Text: Compatibility with lactobacilli and normal vaginal flora is an important requirement for a vaginal microbicide. Activity on pathogens of sexual transmitted diseases is an additional advantage. In in vitro tests for antibacterial activity of compound B, the following susceptibilities were found: • 33 different Lactobacillus species isolated from recto-vaginal cultures of pregnant women were studied.

[1] = Continuous treatment, Cell-associated HIV
[2] = Continuous treatment, Cell-free HIV

For `Cc1cc(C)c(Nc2ccnc(Nc3ccc(C#N)cc3)n2)c(C)c1` [compound B, 4-[[4-[(2,4,6-trimethylphenyl)amino]-2-pyrimidinyl]amino]benzonitrile], the “HIV Antigen (number of positive wells) 2° Cult.” value (HIV Ba-L; 10 nM in 1° culture) was 3, the “HIV proviral DNA (2° Cult.)” value (HIV Ba-L; 10 nM) was 4.74 Log(number of DNA copies/10^6 cells) and the “HIV Antigen (number of positive wells) 1° Cult.” value (HIV Ba-L; 10 nM) was 0. For the same compound, the “HIV Antigen (number of positive wells) 2° Cult.” value (HIV Ba-L; 100 nM in 1° culture) was 0, the “HIV proviral DNA (2° Cult.)” value (HIV Ba-L; 100 nM) was “Neg” and the “HIV Antigen (number of positive wells) 1° Cult.” value (HIV Ba-L; 100 nM) was 0. For the same compound, the “HIV Antigen (number of positive wells) 2° Cult.” value (HIV Ba-L; 1,000 nM in 1° culture) was 0, the “HIV proviral DNA (2° Cult.)” value (HIV Ba-L; 1,000 nM) was “Neg” and the “HIV Antigen (number of positive wells) 1° Cult.” value (HIV Ba-L; 1,000 nM) was 0. For the same compound, the “HIV Antigen (number of positive wells) 2° Cult.” value (HIV Ba-L; 10,000 nM in 1° culture) was 0, the “HIV proviral DNA (2° Cult.)” value (HIV Ba-L; 10,000 nM) was “Neg” and the “HIV Antigen (number of positive wells) 1° Cult.” value (HIV Ba-L; 10,000 nM) was 0. The “Conc. that prevents replicative HIV infection (ELISA and PCR after 2° culture)” value (HIV Ba-L; 24 Hours treatment, Cell-associated HIV) was 1,000 nM, the “Conc. that prevents replicative HIV infection (ELISA and PCR after 2° culture)” value (HIV Ba-L; 24 Hours treatment, Cell-free HIV) was 100 nM and the “Conc. that prevents replicative HIV infection (ELISA and PCR after 2° culture)” value (HIV Ba-L; [1]) was 100 nM. The “Conc. that prevents replicative HIV infection (ELISA and PCR after 2° culture)” value (HIV Ba-L; [2]) was 10 nM, the EC50 (HIV Ba-L; 24 h, 24 hours treatment, Cell-associated HIV) was 63 nM and the EC50 (HIV Ba-L; 24 h, 24 hours treatment, Cell-free HIV) was 42 nM. For the same compound, the EC50 (HIV Ba-L; [1]) was < 1 nM, the EC50 (HIV Ba-L; [2]) was < 0.1 nM and the “Concentration that blocked infection in the primary cultures” value (HIV Ba-L; cell-associated virus, continuous treatment, primary culture only) was 10 nM. For the same compound, the “Systemic infection after vaginal challenge with HIV-1 infected hu-PBL (p24, quantitative PCR)” value (HIV-1 (SF162 and 1/BX08)) was “systemic infection was successfully inhibited”, the “Concentration providing protection of infection” value (HIV-1 RF; virus pretreated prior to addition of cells, without removal of the compound) was 10 nM and the “Concentration providing protection of infection” value (HIV-1 RF; virus treated 1 hour at 37° C., compound removed by washing, co-culture 8 days) was 100 nM. For the same compound, the MIC50 (Lactobacillus species) was > 32 µg/mL.
